The results in this text go back to patent US7459450B2, “Neuropeptide receptor modulators” (Schering Corporation, priority 2004, dated 2008).

Structures are written as SMILES. Bounds are passed on as bounds.

For the first assay, the target named is T1, Human NPY Y1 receptors (Homo sapiens, UniProt P25929).
T1 construct: expressed in transfected cells; host or cells: CHO cells (membrane protein)
T1 sequence (P25929 1-384): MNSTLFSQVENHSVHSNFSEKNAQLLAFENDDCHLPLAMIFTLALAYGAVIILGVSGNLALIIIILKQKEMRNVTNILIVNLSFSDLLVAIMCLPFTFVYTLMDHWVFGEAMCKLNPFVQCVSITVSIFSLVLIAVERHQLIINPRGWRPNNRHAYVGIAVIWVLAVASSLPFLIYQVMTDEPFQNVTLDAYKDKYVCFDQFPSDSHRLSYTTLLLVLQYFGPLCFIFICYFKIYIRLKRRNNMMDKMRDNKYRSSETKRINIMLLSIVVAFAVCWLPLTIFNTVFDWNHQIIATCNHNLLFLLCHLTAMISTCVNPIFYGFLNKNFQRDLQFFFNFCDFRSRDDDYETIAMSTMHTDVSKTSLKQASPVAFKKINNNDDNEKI
Nature of the assay: NPY Receptor Binding Assay.
Conditions: not given
`COc1cccc2sc(NCCc3ccc(/N=C4/N[C@@H](C(C)C)C(=O)S4)cc3)nc12` [Example 365]: the inhibition constant (Ki) (as a rule, the equilibrium dissociation constant of an inhibitor or competing ligand from its target) was over 10 µM.
As for `CC(C)C[C@@H]1N/C(=N/c2ccc(CCNc3nc4ccc([N+](=O)[O-])cc4s3)cc2)SC1=O` [Example 340], the Ki was over 10 µM.
Same read-out and setting: the value for `O=C1S/C(=N\c2ccc(CCNc3nc4cc(Cl)c(Cl)cc4s3)cc2)N2CCC[C@@H]12` [Example 390] was over 10 µM; that for `CC(C)C[C@@H]1N/C(=N/c2ccc(CCNc3nc4ccccc4s3)cc2)SC1=O` [Example 396] was over 10 µM; that for `Cc1ccc2nc(NCCc3ccc(/N=C4/N[C@@H](Cc5ccccc5)C(=O)S4)cc3)sc2c1` [Example 350] was over 10 µM.
On to `O=C1S/C(=N\c2ccc(CCNc3nc4ccc([N+](=O)[O-])cc4s3)cc2)N2CCC[C@@H]12` [Example 341], for which the Ki was over 10 µM.
In the case of `CS(=O)(=O)c1ccc2nc(NCCc3ccc(/N=C4/N[C@@H](CC(=O)O)C(=O)S4)cc3)sc2c1` [Example 353], the Ki is over 10 µM.
Take `COc1ccc2nc(NCCc3ccc(/N=C4\SC(=O)[C@@H]5CCCN45)cc3)sc2c1` [Example 347]: the Ki is over 10 µM.
On to `COc1cccc2sc(NCCc3ccc(/N=C4/N[C@@H](CC(C)C)C(=O)S4)cc3)nc12` [Example 364], for which the Ki is over 10 µM.
In turn, `O=C1CN/C(=N/c2ccc(CCNc3nc4ccccc4s3)cc2)S1` [Example 377] showed a Ki of over 10 µM.
For `COc1cccc2sc(NCCc3ccc(/N=C4/N[C@@H](C)C(=O)S4)cc3)nc12` [Example 368], the Ki is over 10 µM.
`COc1ccc2nc(NCCc3ccc(/N=C4/N[C@@H](Cc5ccccc5)C(=O)S4)cc3)sc2c1` [Example 344] displayed an inhibition constant (Ki) of over 10 µM.
On the same count and under the same terms, the value for `CSCC[C@@H]1N/C(=N/c2ccc(CCNc3nc4ccc(S(C)(=O)=O)cc4s3)cc2)SC1=O` [Example 388] was over 10 µM.
Still for that read-out and setting: the value for `O=C1SC(=Nc2ccc(CCNc3nc4ccc(Cl)cc4s3)cc2)N2CCCC12` (stereo not shown) [Example 385] was over 10 µM.

The same assay, now with this note: Procedure C compounds, rated A/B/C.
`CCOC(=O)N1C(=O)[C@H]([C@@H](C)CC)N=C1Nc1ccc(CCNc2nc3ccccc3s2)cc1` [Example 41] came in with a Ki of over 10 µM.
The same measure, in the same setting: the figure for `CCOC(=O)N1C(=O)CN=C1Nc1ccc(CCNc2nc3ccccc3s2)cc1` [Example 36] is over 10 µM; for `CCOC(=O)N1C(=O)[C@H](CC2CCCCC2)N=C1Nc1ccc(CCNc2nc3ccccc3s2)cc1` [Example 39] it is over 10 µM.

Staying with this assay, now noted: Procedure D compound, rated A/B/C.
For the compound `COC1CN=C(Nc2ccc(CCNc3nc4ccccc4s3)cc2)S1` (stereo not shown) [compound 61], the Ki was 1 to 10 µM.

The same assay, now with this note: Procedure E compounds, rated A/B/C.
The compound `Cc1ccc2nc(NCCc3ccc(/N=C4\SC5Cc6ccccc6[C@@H]5N4C4CC4)cc3)sc2c1` (stereo partly shown) [Example 224] yielded an inhibitory constant (Ki) of over 10 µM.
On the same count and under the same terms, the value for `O=[N+]([O-])c1ccc2nc(NCCc3ccc(N=C4NCCCS4)cc3)sc2c1` [Example 62] was over 10 µM.
Still for that read-out and setting: the figure for `Cc1ccc2nc(NCCc3ccc(/N=C4/NC(c5ccccc5)CCS4)cc3)sc2c1` (stereo not shown) [Example 204] is under 1 µM; for `CC(C)C[C@@H]1CS/C(=N\c2ccc(CCNc3nc4ccc(F)cc4s3)cc2)N1` [Example 297] it is under 1 µM; for `CCCCC1CS/C(=N\c2ccc(CCNc3nc4ccc(Cl)cc4s3)cc2)N1` (stereo not shown) [Example 106] it is 1 to 10 µM.
With `COc1ccc(C2CCSC(Nc3ccc(CCNc4nc5ccccc5s4)cc3)=N2)cc1` (stereo not shown) [Example 333], the inhibitory constant (Ki) is under 1 µM.
On the same count and under the same terms, the figure for `Clc1ccc2nc(NCCc3ccc(/N=C4/NC(c5ccccc5)CCS4)cc3)sc2c1` (stereo not shown) [Example 212] is under 1 µM.
The compound `O=[N+]([O-])c1ccc2nc(NCCc3ccc(/N=C4/NC5(CCCC5)CS4)cc3)sc2c1` [Example 75] showed an inhibition constant Ki of 1 to 10 µM.
Regarding `CS(=O)(=O)c1ccc2nc(NCCc3ccc(/N=C4/NC(c5ccccc5)CCS4)cc3)sc2c1` (stereo not shown) [Example 64], the Ki is 1 to 10 µM.
Regarding `CC[C@@H]1CS/C(=N\c2ccc(CCNc3nc4ccc(OC)cc4s3)cc2)N1` [Example 219], the inhibitory constant (Ki) was in the range of 1 to 10 µM.
Take `COc1ccc2nc(NCCc3ccc(/N=C4\SC5CCC[C@H]5N4C)cc3)sc2c1` (stereo partly shown) [Example 78]: the Ki was over 10 µM.
Same read-out and setting: the value for `COc1ccc2nc(NCCc3ccc(/N=C4\SC5Cc6ccccc6[C@@H]5N4C4CC4)cc3)sc2c1` (stereo partly shown) [Example 79] was over 10 µM; that for `CC(C)C[C@@H]1CS/C(=N\c2ccc(CCNc3nc4ccc(S(C)(=O)=O)cc4s3)cc2)N1` [Example 245] was 1 to 10 µM; that for `c1ccc(/N=C2\NCCCS2)c(CCNc2nc3ccccc3s2)c1` [Example 68] was over 10 µM.
On the same count and under the same terms, the value for `CCCC1CS/C(=N\c2ccc(CCNc3nc4ccc(S(C)(=O)=O)cc4s3)cc2)N1` (stereo not shown) [Example 249] was 1 to 10 µM.
The same measure, in the same setting: the figure for `CC(C)C[C@@H]1CS/C(=N\c2ccc(CCNc3nc4ccccc4s3)cc2)N1` [Example 134] is under 1 µM; for `CCCCC1CS/C(=N\c2ccc(CCNc3nc4ccc(C)cc4s3)cc2)N1` (stereo not shown) [Example 92] it is 1 to 10 µM; for `c1cc(CCNc2nc3ccccc3s2)cc(/N=C2\N[C@H]3c4ccccc4CC3S2)c1` (stereo partly shown) [Example 184] it is over 10 µM.
For the compound `CC(C)CC1CCSC(Nc2ccc(CCNc3nc4ccccc4s3)cc2)=N1` (stereo not shown) [Example 338], the Ki is under 1 µM.
The compound `c1ccc(/N=C2\N[C@H]3c4ccccc4CC3S2)c(CCNc2nc3ccccc3s2)c1` (stereo partly shown) [Example 183] came in with an inhibition constant Ki of over 10 µM.
On the same count and under the same terms, the value for `c1ccc(C2CCS/C(=N/c3cccc(CCNc4nc5ccccc5s4)c3)N2)cc1` (stereo not shown) [Example 71] was over 10 µM.

The same assay, now with this note: Procedure G compounds, rated A/B/C.
As for `c1ccc2sc(NCCc3ccc(Nc4nc(C56C[C@H]7C[C@@H](C5)C[C@@H](C6)C7)cs4)cc3)nc2c1` [Example 424], the Ki is over 10 µM.
Still for that read-out and setting: the figure for `CCc1csc(Nc2ccc(CCNc3nc4ccccc4s3)cc2)n1` [Example 430] is over 10 µM; for `c1ccc(-c2nc(Nc3ccc(CCNc4nc5ccccc5s4)cc3)sc2-c2ccccc2)cc1` [Example 421] it is over 10 µM; for `CC(C)(C)c1csc(Nc2ccc(CCNc3nc4ccccc4s3)cc2)n1` [Example 433] it is over 10 µM.

The assay is the same for the next values; noted with them: Procedure H compounds, rated A/B/C.
`CCCC1SC(Nc2ccc(CCNc3nc4ccccc4s3)cc2)=NC1=O` (stereo not shown) [Example 446] registered an inhibitory constant (Ki) of over 10 µM.
Take `O=C1N=C(Nc2ccc(CCNc3nc4ccccc4s3)cc2)SC1CCO` (stereo not shown) [Example 441]: the Ki is over 10 µM.
As to `CC(O)CC1SC(Nc2ccc(CCNc3nc4ccccc4s3)cc2)=NC1=O` (stereo not shown) [Example 440], the Ki was over 10 µM.

Still in this assay, the particulars now being: Procedure I compounds, column head blank, rated A/B/C.
`c1ccc(C2CCCC(Nc3ccc(CCNc4nc5ccccc5s4)cc3)=N2)cc1` (stereo not shown) [Example 449] registered a Ki of 1 to 10 µM.

The assay is the same for the next values; noted with them: Table 1, rated A/B/C.
Turning to `CC1CCSC(Nc2ccc(CCNc3nc4ccccc4s3)cc2)=N1` (stereo not shown) [Example 11], the Ki is under 1 µM.
On to `c1ccc(CCC2CCSC(Nc3ccc(CCNc4nc5ccccc5s4)cc3)=N2)cc1` (stereo not shown) [Example 13], for which the Ki is under 1 µM.
